In US11839613B2, “Pyrimidine derivatives as PGE2 receptor modulators” (IDORSIA PHARMACEUTICALS LTD, priority 2017, dated 2023):

What was measured:
PTGER4 (EP4) = PTGER4 (EP4) (Homo sapiens (Human), UniProt P35408); assay: cell-based
PTGER2 (EP2) = PTGER2 (EP2) (Homo sapiens (Human), UniProt P43116); assay: hEP2 b-arrestin assay (PathHunter HEK 293 PTGER2 b-arrestin cells); type: cell-based; conditions: antagonistic activity, beta-arrestin assay; read-out: hEP2 b-arr IC50
Experimental: Plate is pre-incubated 15 minutes at 37° C. Then five microliters of PGE2 (final conc. 5 μM) are transferred into the assay plate. Plate is incubated 120 minutes at 37° C.
(each concentration is measured in duplicate)

PTGER4 (EP4), sequence (P35408 whole entry): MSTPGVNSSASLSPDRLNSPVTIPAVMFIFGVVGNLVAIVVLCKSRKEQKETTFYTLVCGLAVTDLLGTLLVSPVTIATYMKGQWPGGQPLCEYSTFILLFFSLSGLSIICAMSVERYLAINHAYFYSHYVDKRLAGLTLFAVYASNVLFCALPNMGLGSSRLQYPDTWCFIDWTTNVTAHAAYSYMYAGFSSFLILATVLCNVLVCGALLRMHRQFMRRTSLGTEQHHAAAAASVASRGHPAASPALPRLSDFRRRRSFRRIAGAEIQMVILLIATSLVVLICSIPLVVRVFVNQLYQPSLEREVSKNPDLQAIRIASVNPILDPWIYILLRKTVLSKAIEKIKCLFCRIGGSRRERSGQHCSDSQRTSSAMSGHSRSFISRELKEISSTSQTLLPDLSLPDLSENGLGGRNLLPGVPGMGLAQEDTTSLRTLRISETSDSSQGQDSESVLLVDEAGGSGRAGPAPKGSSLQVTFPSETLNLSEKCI
PTGER2 (EP2), sequence (P43116 whole entry): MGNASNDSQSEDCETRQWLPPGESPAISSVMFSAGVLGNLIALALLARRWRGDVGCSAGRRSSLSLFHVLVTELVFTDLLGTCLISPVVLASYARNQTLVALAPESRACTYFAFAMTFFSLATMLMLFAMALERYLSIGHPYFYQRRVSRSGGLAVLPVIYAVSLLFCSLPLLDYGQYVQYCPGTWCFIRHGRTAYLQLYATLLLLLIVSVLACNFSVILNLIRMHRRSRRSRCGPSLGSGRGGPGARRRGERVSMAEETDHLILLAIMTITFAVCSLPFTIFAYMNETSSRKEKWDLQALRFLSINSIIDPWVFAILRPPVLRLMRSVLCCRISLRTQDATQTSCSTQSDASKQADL

| SMILES | IC50 (PTGER4 (EP4)) [nM] | IC50 (PTGER2 (EP2)) [nM] |
| --- | --- | --- |
| CN1C(=O)NCc2ccc(-c3cc(NCCc4cc(F)c5sccc5c4)ncn3)cc21 [Example 530, 7-{6-[2-(7-Fluoro-benzo[b]thiophen-5-yl)-ethylamino]-pyrimidin-4-yl}-1-methyl-3,4-dihydro-1H-quinazolin-2-one] | 44 | 514 |
| CCCc1cc(-c2cc(NCCc3cc(F)c4sccc4c3)ncn2)ccc1C1(C(=O)O)CC1 [Example 557, 1-(4-{6-[2-(7-Fluoro-benzo[b]thiophen-5-yl)-ethylamino]-pyrimidin-4-yl}-2-propyl-phenyl)-cyclopropanecarboxylic acid] | 117 | 994 |
| O=c1c(O)c(-c2ccc(-c3cc(NCCc4cc(F)c5sccc5c4)ncn3)cc2)c1=O [Example 536, 3-(4-{6-[2-(7-Fluoro-benzo[b]thiophen-5-yl)-ethylamino]-pyrimidin-4-yl}-phenyl)-4-hydroxy-cyclobut-3-ene-1,2-dione] | 28 | 203 |
| COc1cc(-c2cc(NCCc3ccc4sccc4c3F)ncn2)ccc1OCCC(=O)O [Example 437, 3-(4-{6-[2-(4-Fluoro-benzo[b]thiophen-5-yl)-ethylamino]-pyrimidin-4-yl}-2-methoxy-phenoxy)-propionic acid] | 41 | 104 |
| CCCc1cc(-c2cc(NCCc3cc4c(cc3OC)OCCO4)ncn2)ccc1CC(=O)O [Example 387, (4-{6-[2-(7-Methoxy-2,3-dihydro-benzo[1,4]dioxin-6-yl)-ethylamino]-pyrimidin-4-yl}-2-propyl-phenyl)-acetic acid] | 49 | 61 |
| O=C(O)Cc1ccc(-c2cc(NCCc3cc(F)c4sccc4c3)ncn2)cc1OC(F)F [Example 540, (2-Difluoromethoxy-4-{6-[2-(7-fluoro-benzo[b]thiophen-5-yl)-ethylamino]-pyrimidin-4-yl}-phenyl)-acetic acid] | 146 | 339 |
| CCOc1cc(-c2cc(NCCc3ccc4sccc4c3)ncn2)cc(F)c1CC(=O)O [Example 370, {4-[6-(2-Benzo[b]thiophen-5-yl-ethylamino)-pyrimidin-4-yl]-2-ethoxy-6-fluoro-phenyl}-acetic acid] | 105 | 438 |
| CCCc1cc(-c2cc(NCCc3c(OC)cc4ccccc4c3C)ncn2)ccc1CC(=O)O [Example 388, (4-{6-[2-(3-Methoxy-1-methyl-naphthalen-2-yl)-ethylamino]-pyrimidin-4-yl}-2-propyl-phenyl)-acetic acid] | 13 | 45 |
| CSc1cc(-c2cc(NCCc3cc(C)c4sccc4c3)ncn2)ccc1C(=O)O [Example 477, 4-{6-[2-(7-Methyl-benzo[b]thiophen-5-yl)-ethylamino]-pyrimidin-4-yl}-2-methylsulfanyl-benzoic acid] | 210 | 316 |
| CCOc1cc2c(cc1CCNc1cc(-c3ccc(CC(=O)O)c(OC(F)F)c3)ncn1)OCCO2 [Example 510, (2-Difluoromethoxy-4-{6-[2-(7-ethoxy-2,3-dihydro-benzo[1,4]dioxin-6-yl)-ethylamino]-pyrimidin-4-yl}-phenyl)-acetic acid] | 194 | 45 |
| COc1cc2c(cc1CCNc1cc(-c3ccc(C(=O)O)c(OC4CC4)c3)ncn1)OCCO2 [Example 520, 2-Cyclopropoxy-4-{6-[2-(7-methoxy-2,3-dihydro-benzo[1,4]dioxin-6-yl)-ethylamino]-pyrimidin-4-yl}-benzoic acid] | 107 | 19 |
| CCc1cc(-c2cc(NCCc3cc(F)c4sccc4c3)ncn2)ccc1C(=O)O [Example 518, 2-Ethyl-4-{6-[2-(7-fluoro-benzo[b]thiophen-5-yl)-ethylamino]-pyrimidin-4-yl}-benzoic acid] | 176 | 116 |
| CCc1cc(-c2cc(NCCc3ccc4ccccc4c3C)ncn2)ccc1C(=O)O [Example 517, 2-Ethyl-4-{6-[2-(1-methyl-naphthalen-2-yl)-ethylamino]-pyrimidin-4-yl}-benzoic acid] | 288 | 108 |
| CCOc1cc(-c2cc(NCCc3cc(F)c4sccc4c3)ncn2)sc1C(=O)O [Example 362, 3-Ethoxy-5-{6-[2-(7-fluoro-benzo[b]thiophen-5-yl)-ethylamino]-pyrimidin-4-yl}-thiophene-2-carboxylic acid] | 6 | 20 |
| CCOc1cc(-c2cc(NCCc3cc(C)c4sccc4c3)ncn2)sc1C(=O)O [Example 391, 3-Ethoxy-5-{6-[2-(7-methyl-benzo[b]thiophen-5-yl)-ethylamino]-pyrimidin-4-yl}-thiophene-2-carboxylic acid] | 19 | 131 |
| CCCc1cc(-c2cc(NCCc3cc4c(cc3C)OCCO4)ncn2)ccc1CC(=O)O [Example 526, (4-{6-[2-(7-Methyl-2,3-dihydro-benzo[1,4]dioxin-6-yl)-ethylamino]-pyrimidin-4-yl}-2-propyl-phenyl)-acetic acid] | 269 | 96 |

| SMILES | IC50 (PTGER4 (EP4)) [nM] | IC50 (PTGER2 (EP2)) [nM] |
| --- | --- | --- |
| COc1cc(-c2cc(NCCc3cc(F)c4sccc4c3)ncn2)ccc1C(=O)O [Example 497, 4-{6-[2-(7-Fluoro-benzo[b]thiophen-5-yl)-ethylamino]-pyrimidin-4-yl}-2-methoxy-benzoic acid] | 443 | 449 |
| CC(C)Oc1cc(-c2cc(NCCc3ccc4sccc4c3F)ncn2)ccc1C(=O)O [Example 492, 4-{6-[2-(4-Fluoro-benzo[b]thiophen-5-yl)-ethylamino]-pyrimidin-4-yl}-2-isopropoxy-benzoic acid] | 142 | 204 |
| CCOc1cc(-c2cc(NCCc3ccc4ccccc4c3C)ncn2)ccc1Cc1noc(=O)[nH]1 [Example 566, 3-(2-Ethoxy-4-{6-[2-(1-methyl-naphthalen-2-yl)-ethylamino]-pyrimidin-4-yl}-benzyl)-[1,2,4]oxadiazol-5(4H)-one] | 159 | 297 |
| CCCc1cc(-c2cc(NCCc3cc4c(cc3OC)OCCO4)ncn2)ccc1C(C)C(=O)O (racemic) [Example 401, rac-2-(4-{6-[2-(7-Methoxy-2,3-dihydro-benzo[1,4]dioxin-6-yl)-ethylamino]-pyrimidin-4-yl]-2-propyl-phenyl)-propionic acid] | 114 | 331 |
| COC(=O)c1ccc(-c2cc(NCCc3cc(F)c4sccc4c3)ncn2)cc1OC1CC1 [Example 538, 2-Cyclopropoxy-4-{6-[2-(7-fluoro-benzo[b]thiophen-5-yl)-ethylamino]-pyrimidin-4-yl}-benzoic acid methyl ester] | 99 | 685 |
| COc1cc2c(c(F)c1CCNc1cc(-c3ccc(CC(=O)O)c(OC(F)F)c3)ncn1)OCCO2 [Example 442, (2-Difluoromethoxy-4-{6-[2-(5-fluoro-7-methoxy-2,3-dihydro-benzo[1,4]dioxin-6-yl)-ethylamino]-pyrimidin-4-yl}-phenyl)-acetic acid] | 27 | 82 |
| CCOc1cc(-c2cc(NCCc3cc(F)c4sccc4c3)ncn2)ccc1C(=O)NCCO [Example 464, 2-Ethoxy-4-{6-[2-(7-fluoro-benzo[b]thiophen-5-yl)-ethylamino]-pyrimidin-4-yl}-N-(2-hydroxy-ethyl)-benzamide] | 87 | 300 |
| COc1c(CCNc2cc(-c3ccc(C(=O)O)c(SC)c3)ncn2)cc2ccsc2c1F [Example 405, 4-{6-[2-(7-Fluoro-6-methoxy-benzo[b]thiophen-5-yl)-ethylamino]-pyrimidin-4-yl}-2-methylsulfanyl-benzoic acid] | 79 | 9 |
| CCOc1cc(-c2cc(NCCc3ccc4sccc4c3C)ncn2)cc(F)c1CC(=O)O [Example 372, (2-Ethoxy-6-fluoro-4-{6-[2-(4-methyl-benzo[b]thiophen-5-yl)-ethylamino]-pyrimidin-4-yl}-phenyl)-acetic acid] | 195 | 75 |
| CCCc1cc(-c2cc(NCCc3cc(F)c4sccc4c3)ncn2)ccc1C(=O)NC [Example 458, 4-{6-[2-(7-Fluoro-benzo[b]thiophen-5-yl)-ethylamino]-pyrimidin-4-yl}-N-methyl-2-propyl-benzamide] | 104 | 550 |
| CCOc1cc2c(cc1CCNc1cc(-c3ccc(CC(=O)O)c(CC(C)C)c3)ncn1)OCCO2 [Example 412, (4-{6-[2-(7-Ethoxy-2,3-dihydro-benzo[1,4]dioxin-6-yl)-ethylamino]-pyrimidin-4-yl}-2-isobutyl-phenyl)-acetic acid] | 40 | 20 |
| CCCc1cc(-c2cc(NCCc3cc(F)c4sccc4c3)ncn2)ccc1C(=O)O [Example 389, 4-{6-[2-(7-Fluoro-benzo[b]thiophen-5-yl)-ethylamino]-pyrimidin-4-yl}-2-propyl-benzoic acid] | 25 | 51 |
| CC(C)Cc1cc(-c2cc(NCCc3cc(F)c4sccc4c3)ncn2)ccc1C(=O)O [Example 414, 4-{6-[2-(7-Fluoro-benzo[b]thiophen-5-yl)-ethylamino]-pyrimidin-4-yl}-2-isobutyl-benzoic acid] | 48 | 219 |
| Cc1cc(-c2cc(NCCc3cc(F)c4sccc4c3)ncn2)ccc1C(=O)O [Example 555, 4-{6-[2-(7-Fluoro-benzo[b]thiophen-5-yl)-ethylamino]-pyrimidin-4-yl}-2-methyl-benzoic acid] | 835 | 887 |
| CCOc1cc2c(cc1CCNc1cc(-c3ccc(CC(=O)O)c(OC(F)(F)F)c3)ncn1)OCCO2 [Example 427, (4-{6-[2-(7-Ethoxy-2,3-dihydro-benzo[1,4]dioxin-6-yl)-ethylamino]-pyrimidin-4-yl}-2-trifluoromethoxy-phenyl)-acetic acid] | 90 | 17 |
| CCOc1cc(-c2cc(NCCc3cc4ccsc4cc3C)ncn2)cc(F)c1CC(=O)O [Example 469, (2-Ethoxy-6-fluoro-4-{6-[2-(6-methyl-benzo[b]thiophen-5-yl)-ethylamino]-pyrimidin-4-yl}-phenyl)-acetic acid] | 480 | 502 |
